The nature of this series: Hansen solubility parameters of the core solvents. The series is classed as physicochemical. The source says:
The term “Hansen solubility parameter” refers to a solubility parameter approach proposed by Charles Hansen used to predict polymer solubility and was developed around the basis that the total energy of vaporization of a liquid consists of several individual parts. To calculate the “weighted Hansen solubility parameter” one must combine the effects of (atomic) dispersion forces, (molecular) permanent dipole-permanent dipole forces, and (molecular) hydrogen bonding (electron exchange). The “weighted Hansen solubility parameter” is calculated as (δD^2+δP^2+δH^2)^0.5, wherein δD is the Hansen dispersion value, δP is the Hansen polarizability value, and δH is the Hansen Hydrogen-bonding (“h-bonding”) value.

As to `CCCCCCCCCCCCCC(=O)OC(C)C` [isopropyl myristate], the “δD (Hansen dispersion value)” value was determined as 16, the “δH (Hansen h-bonding value)” value worked out at 2.7 and the “δP (Hansen polar (dipole-dipole) value)” value is 2.1.

For `CC(=O)OCC(COC(C)=O)OC(C)=O` [triacetin], the “δD (Hansen dispersion value)” value is listed as 16.4, the “δH (Hansen h-bonding value)” value came to 9.6 and the “δP (Hansen polar (dipole-dipole) value)” value was 5.7.

(Values after patent publication US11491089B2, “Reloadable microcapsules” (International Flavors & Fragrances Inc., priority 2016, dated 2022).)
